The source of these data is patent US12552772B2, “2-pyrazole anilines and related analogs for inhibiting YAP/TAZ-TEAD” (KATHOLIEKE UNIVERSITEIT LEUVEN, priority 2021, dated 2026).

Format in all cases: cell-based
Test [1] relates to YAP/TAZ-TEAD transcription. Description: Reporter gene assay for measuring the inhibition of YAP/TAZ-TEAD transcription (TEAD-responsive element luciferase reporter in Hek293T cells). To be noted: Homo sapiens, HEK-293T, 24 hours incubation. In a few lines: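 Hek293T cells transiently transfected with a TEAD-responsive element luciferase reporter were plated onto compounds and incubated 24 h at 37 °C/5% CO2. SteadyLite luminescence gave percent inhibition, normalised to vehicle (0%) and positive control inhibitor (100%); EC50 derived.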
(Reporter assays use an easily measured gene product as a stand-in for the process of interest.)

The test system of the next test is NCI-H226. Description: Mesothelioma cell line proliferation assay (ATPlite), NCI-H226. The following applies: Homo sapiens, 144 h; NCI-H226 cells, 6 days, ATPlite cell viability. As to the method:
(§1) Mesothelioma cell lines, NCI-H226 and NCI-H2052 (all sourced from the ATCC cell culture collection) are plated in 96-well plates (Corning® 96 Well White Polystyrene Microplate clear flat bottom, white polystyrene (TC-Treated)), at 1500 cells/well in full medium (RPMI 1640 ATCC modification with L-glutamine, HEPES, Phenol Red, Sodium Pyruvate, High glucose, Low sodium bicarbonate and 10% fetal bovine serum). Cells are incubated overnight at 37° C. in an incubator with 5% CO2. Then compounds, dissolved in DMSO, are added in dose-response. Cells are incubated with compound dilutions for another 6 days at 37° C. in an incubator with 5% CO2. Cell viability is quantitated using the ATPlite kit (Perkin-Elmer) and the luminescence is read-out using an Envision instrument (Perkin-Elmer). The amount of relative light units produced using the ATPlite kit is used to calculated percent of inhibition.
(§2) The activities of example compounds tested are depicted in the table below. The activity ranges A, B and C refer to EC50 values in the mesothelioma cell line proliferation assay as described as follows: “A”: EC50<1 μM; “B”: 1 μM s EC50≤10 μM and “C”: EC50>10 μM. NT: not tested.
Background: In ATP-based viability assays light output follows the ATP content of the culture.

In a further test the test system is NCI-H2052. Description: Mesothelioma cell line proliferation assay (ATPlite), NCI-H2052. To be noted: Homo sapiens, NCI-H2052, 144 h, NCI-H2052 cells, 6 days, ATPlite cell viability. As to the method: as §1, §2

SMILES strings stand for the structures. Where only a bound is given, the exact number is not on record here.

Turning to `C=CC(=O)NCc1cnc(C2CCC(F)(F)CC2)cc1-c1ccn(C(F)F)n1` [Cpd. No. 223, N-((6-(4,4-difluorocyclohexyl)-4-(1-(difluoromethyl)-1H-pyrazol-3-yl)pyridin-3-yl)methyl)acrylamide], the EC50 (commonly the concentration needed to bring the measured effect to its halfway point) in test [1] is below 1000 nM; in the test with NCI-H226 it was below 1000 nM; in the test with NCI-H2052 it was 1 to 10 µM.

In the case of `C=CC(=O)NCc1cc(-c2ccc(F)cc2)cc(-c2ccn(C(F)F)n2)n1` [Cpd. No. 225, N-((6-(1-(difluoromethyl)-1H-pyrazol-3-yl)-4-(4-fluorophenyl)pyridin-2-yl)methyl)acrylamide], the figures for the EC50 (in test [1]; in the test with NCI-H226; in the test on NCI-H2052) were below 1000 nM, below 1000 nM and 1 to 10 µM, respectively.

`C=CC(=O)NCc1cc(C2CCC(F)(F)CC2)cc(-c2ccn(C(F)F)n2)n1` [Cpd. No. 228, N-((4-(4,4-difluorocyclohexyl)-6-(1-(difluoromethyl)-1H-pyrazol-3-yl)pyridin-2-yl)methyl)acrylamide]: the EC50 is below 1000 nM in test [1], below 1000 nM in the test with NCI-H226 and above 10 µM in the test with NCI-H2052.

As for `C=CC(=O)NCc1cnc(-c2ccc(F)cc2)cc1-c1cc2n(n1)CCCC2` [Cpd. No. 231, N-((6-(4-fluorophenyl)-4-(4,5,6,7-tetrahydropyrazolo[1,5-a]pyridin-2-yl)pyridin-3-yl)methyl)acrylamide], the results for the concentration for a half-maximal effect (EC50) (in test [1]; in the test on NCI-H226; in the test with NCI-H2052) were below 1000 nM, below 1000 nM and above 10 µM, respectively.

Turning to `C=CC(=O)NCc1cnc(-c2ccc(F)cc2)cc1-n1nnc(C)n1` [Cpd. No. 249, N-((6-(4-fluorophenyl)-4-(5-methyl-2H-tetrazol-2-yl)pyridin-3-yl)methyl)acrylamide], the EC50 in test [1] was below 1000 nM; in the test with NCI-H226, below 1000 nM; in the test on NCI-H2052, 1 to 10 µM.

In the case of `C=CC(=O)NCc1cnc(-c2ccc(F)cc2)nc1-c1ccn(C)n1` [Cpd. No. 253, N-((2-(4-fluorophenyl)-4-(1-methyl-1H-pyrazol-3-yl)pyrimidin-5-yl)methyl)acrylamide], the EC50 in test [1] was below 1000 nM; in the test on NCI-H226, below 1000 nM; with NCI-H2052, below 1 µM.

For `C=CC(=O)Nc1cncc(-c2cccc(-c3ccn(Cc4ccccc4)n3)c2)c1` [compound 004, N-(5-(3-(1-benzyl-1H-pyrazol-3-yl)phenyl)pyridin-3-yl)acrylamide], the EC50 in test [1] was below 1000 nM; in the test on NCI-H226 it was 1000 to 10000 nM.

`NS(=O)(=O)CCNc1ccc(-c2ccccc2)cc1-c1ccn(Cc2cccnc2)n1` [compound 054, 2-((3-(1-(pyridin-3-ylmethyl)-1H-pyrazol-3-yl)-[1,1′-biphenyl]-4-yl)amino)ethane-1-sulfonamide]: the EC50 (in test [1]; in the test with NCI-H226) was below 1000 nM throughout.

Regarding `C=CC(=O)NCCNc1ccc(-c2ccccc2)cc1-c1ccn(Cc2cccnc2)n1` [compound 075, N-(2-((3-(1-(pyridin-3-ylmethyl)-1H-pyrazol-3-yl)-[1,1′-biphenyl]-4-yl)amino)ethyl)acrylamide], the EC50 in test [1] is 1000 to 20000 nM; in the test on NCI-H226, below 1000 nM.

In the case of `CNS(=O)(=O)CCNc1ccc(-c2cccc(F)c2)cc1-c1ccn(Cc2cccnc2)n1` [compound 088], the EC50 in test [1] is below 1000 nM; with NCI-H226 it was above 10000 nM.

Turning to `CNS(=O)(=O)CCNc1ccc(-c2ccc(Cl)cc2)cc1-c1ccn(C)n1` [compound 121, 2-((4′-chloro-3-(1-methyl-1H-pyrazol-3-yl)-[1,1′-biphenyl]-4-yl)amino)-N-methylethane-1-sulfonamide], the results for the EC50 (in test [1]; with NCI-H226) were below 1000 nM and 1000 to 10000 nM, respectively.

In the case of `C=CC(=O)NCc1ccc(-c2ccccc2)cc1-c1ccn(C)n1` [compound 135, N-((3-(1-methyl-1H-pyrazol-3-yl)-[1,1′-biphenyl]-4-yl)methyl)acrylamide], the EC50 (in test [1]; with NCI-H226) was below 1000 nM in each case.

Take `C=CC(=O)NCc1cnc(-c2ccn(C(F)F)n2)cc1N1CCC(F)(F)CC1` [compound 222, N-((6-(1-(difluoromethyl)-1H-pyrazol-3-yl)-4-(4,4-difluoropiperidin-1-yl)pyridin-3-yl)methyl)acrylamide]: the EC50 in test [1] is 1000 to 20000 nM.

Turning to `CCC(=O)NCc1cc(-c2ccc(F)cc2)cc(-c2ccn(C(F)F)n2)n1` [compound 226, N-((6-(1-(difluoromethyl)-1H-pyrazol-3-yl)-4-(4-fluorophenyl)pyridin-2-yl)methyl)propionamide], the concentration for a half-maximal effect (EC50) in test [1] was below 1000 nM.

With `C=CC(=O)NCc1cnc(-c2ccc(F)cc2)cc1-c1cnn(C(F)F)n1` [compound 230, N-((4-(2-(difluoromethyl)-2H-1,2,3-triazol-4-yl)-6-(4-fluorophenyl)pyridin-3-yl)methyl)acrylamide], the EC50 in test [1] was below 1000 nM.

Consider `CCC(=O)NCc1cnc(-c2ccc(F)cc2)cc1-c1cc2n(n1)CCCC2` [compound 232, N-((6-(4-fluorophenyl)-4-(4,5,6,7-tetrahydropyrazolo[1,5-a]pyridin-2-yl)pyridin-3-yl)methyl)propionamide], for which the EC50 in test [1] was below 1000 nM.

In test [1], `CCC(=O)NCc1cc(=O)n(-c2ccc(F)cc2)cc1-c1ccn(C)n1` [compound 236, N-((1-(4-fluorophenyl)-5-(1-methyl-1H-pyrazol-3-yl)-2-oxo-1,2-dihydropyridin-4-yl)methyl)propionamide] displayed a concentration for a half-maximal effect (EC50) of 1000 to 20000 nM.

In test [1], `Cn1ccc(-c2cn(-c3ccc(F)cc3)c(=O)cc2CNS(C)(=O)=O)n1` [compound 237, N-((1-(4-fluorophenyl)-5-(1-methyl-1H-pyrazol-3-yl)-2-oxo-1,2-dihydropyridin-4-yl)methyl)methanesulfonamide] came in with an EC50 above 20000 nM.

For the molecule `CNS(=O)(=O)NCc1cc(=O)n(-c2ccc(F)cc2)cc1-c1ccn(C)n1` [compound 238, N-methyl, N′-((1-(4-fluorophenyl)-5-(1-methyl-1H-pyrazol-3-yl)-2-oxo-1,2-dihydropyridin-4-yl)methyl)sulfamide], the EC50 in test [1] was above 20000 nM.

Take `CCC(=O)NCc1ccc(-c2ccc(F)cc2)cc1-n1ccc(C)n1` [compound 242, N-((4′-fluoro-3-(3-methyl-1H-pyrazol-1-yl)-[1,1′-biphenyl]-4-yl)methyl)propionamide]: the EC50 in test [1] was above 20000 nM.

For `CCC(=O)NCc1cnc(-c2ccc(F)cc2)cc1-n1ncc(C)n1` [compound 245, N-((6-(4-fluorophenyl)-4-(4-methyl-2H-1,2,3-triazol-2-yl)pyridin-3-yl)methyl)propionamide], the EC50 in test [1] was below 1000 nM.

On to `C=CC(=O)NCc1cnc(-c2ccc(F)cc2)cc1-n1ccc(C(F)(F)F)n1` [compound 246, N-((6-(4-fluorophenyl)-4-(3-(trifluoromethyl)-1H-pyrazol-1-yl)pyridin-3-yl)methyl)acrylamide], for which, in test [1], the EC50 was above 20000 nM.

`C=CC(=O)NCc1cnc(-c2ccc(F)cc2)cc1-n1ccc(C2CC2)n1` [compound 247, N-((4-(3-cyclopropyl-1H-pyrazol-1-yl)-6-(4-fluorophenyl)pyridin-3-yl)methyl)acrylamide] gave a concentration giving a half-maximal response (EC50) in test [1] below 1000 nM.

Turning to `C=CC(=O)NCc1cnc(-c2ccc(F)cc2)cc1-n1cc(C(F)(F)F)cn1` [compound 248, N-((6-(4-fluorophenyl)-4-(4-(trifluoromethyl)-1H-pyrazol-1-yl)pyridin-3-yl)methyl)acrylamide], the EC50 in test [1] was below 1000 nM.

Regarding `C=CC(=O)NCc1cnc(-c2ccc(F)cc2)cc1-n1nnnc1C` [compound 250, N-((6-(4-fluorophenyl)-4-(5-methyl-1H-tetrazol-1-yl)pyridin-3-yl)methyl)acrylamide], the EC50 in test [1] was above 20000 nM.

In turn, `CCC(=O)NCc1cnc(-c2ccc(F)cc2)cc1-n1nnc(C)n1` [compound 251, N-((6-(4-fluorophenyl)-4-(5-methyl-2H-tetrazol-2-yl)pyridin-3-yl)methyl)propionamide] came in with a half-maximal effective concentration (EC50) in test [1] above 20000 nM.

In test [1], `CCC(=O)NCc1cnc(-c2ccc(F)cc2)cc1-n1nnnc1C` [compound 252, N-((6-(4-fluorophenyl)-4-(5-methyl-1H-tetrazol-1-yl)pyridin-3-yl)methyl)propionamide] gave an EC50 above 20000 nM.

Molecule `CCC(=O)N1CCC(c2ccc(-c3ccc(F)cc3)cc2-c2ccn(C)n2)C1` (stereo not drawn) [compound 259, 1-(3-(4′-fluoro-3-(1-methyl-1H-pyrazol-3-yl)-[1,1′-biphenyl]-4-yl)pyrrolidin-1-yl)propan-1-one] gave an EC50 in test [1] of 1000 to 20000 nM.

`CS(=O)(=O)N1CCC(c2ccc(-c3ccc(F)cc3)cc2-c2ccn(C(F)F)n2)C1` (stereo not drawn) [compound 260, 1-(difluoromethyl)-3-(4′-fluoro-4-(1-(methylsulfonyl)pyrrolidin-3-yl)-[1,1′-biphenyl]-3-yl)-1H-pyrazole] came in with an EC50 in test [1] above 20000 nM.

In test [1], `CNS(=O)(=O)N1CCC(c2cnc(-c3ccc(F)cc3)cc2-c2ccn(C(F)F)n2)C1` (stereo not drawn) [compound 263, 3-(4-(1-(difluoromethyl)-1H-pyrazol-3-yl)-6-(4-fluorophenyl)pyridin-3-yl)-N-methylpyrrolidine-1-sulfonamide] displayed a concentration giving a half-maximal response (EC50) above 20000 nM.
